Data from US7741472B2, “Polynucleotide containing a phosphate mimetic” (Roche Diagnostics Operations, Inc., priority 2005, dated 2010).
Strand notation (5' to 3'): a small letter for the sugar, then the base; units joined by * are phosphorothioate-linked, units joined directly phosphodiester-linked; [ ] holds rarer units or linkages, { } end groups; capitals alone tell only the bases. [RhoB] = phosphoramidate linkage P=N-S(O)2-rhodamine-B replacing P=O; d = 2'-deoxy (DNA); {P} = phosphate

Legend:
[1] = test system: factor V DNA fragment, wild type; experiment: Melting curve analysis with lissamine acceptor probe, wild type; assay type: binding; settings: 10^6 copies
Experimental: (§1) A teal time PCR and melting curve analysis were carried out according to example 6 for the amplification of 10^4 and 10^6 copies of a factor V DNA fragment. A fluorescein donor probe according to example 6 (SEQ ID NO: 4) which was not further modified and a FRET acceptor probe according to example 7b (SEQ ID NO: 3) were used for this.
(§2) The melting point for the wild type was determined as 64.69° C. and 56.24° C. was determined as the melting point for the mutant (10^6 copies).

factor V DNA = experiment: Real time PCR of factor V DNA with fluorescein/lissamine FRET hybridization probes; assay type: biochemical; settings: LIGHTCYCLER 2.0, 610 nm channel, unmodified fluorescein donor probe
Experimental: Primers were used in combination with a pair of fluorescein/lissamine FRET hybridization probes where Lissamine (rhodamineB) acted as a FRET acceptor. Quantification curves were recorded and the cp value was determined as a function of the concentration of the target nucleic acid.
as §1
The fluorescence signal was measured in the 610 nm detection channel. The 610/530 background correction mode was used to normalize the raw signal. A cp value of 22 was determined for 10^6 copies and a cp of 26 was determined for 10^4 copies.

[2] = test system: factor V DNA fragment, mutant; experiment: Melting curve analysis with lissamine acceptor probe, mutant; assay type: binding; settings: 10^6 copies
Experimental: as §1, §2

human Factor V DNA = experiment: Real time PCR with modified primers (crossing point); assay type: biochemical; settings: LIGHTCYCLER 1.2, primer combinations SEQ ID NO: 1 / SEQ ID NO: 2, 640 nm channel
Experimental: A quantitative real time PCR of human Factor V DNA was carried out on a LIGHTCYCLER 1.2 instrument (Roche Diagnostics GmbH) in order to analyse the effect of phosphate mimetics on primer elongation. The P═N-pPh-NAc mimetic which was introduced at different positions of a primer pair used for amplification of human Factor V DNA. The modified primers were, synthesized according to example 4. Purification was done by the Reversed Phase chromatography of example 3 in the Trityl on mode. Detritylation was performed by treating with 80% acetic acid for 20 min.
This primers were used in combination with a pair of fluorescein/LIGHTCYCLER Red 640 FRET hybridization probes according to example 6. The Fluorescein probe and the 5′ LIGHTCYCLER Red 640 probe (SEQ ID NO: 3 and 4) were kept constant. Various combinations of modified and unmodified primers were tested. As reference unmodified primers were used. The effect on the crossing point which is a measure for the amplification efficiency was evaluated.
The real time monitoring was carried out over 45 cycles using the 2nd derivative threshold method in which, the fluorescence signal was measured in a detection channel that is specific for the LIGHTCYCLER Red 640 emission (at 640 nm) and the arithmetic background correction mode was used to normalize the initial signal.
The absolute fluorescence signals are measured as above in the 640 nm channel and subsequently the first derivative was calculated from this. The crossing points are shown in the following table as a measure for the amplification efficiency when using different modified primers.

Row | Substance | melting point for the wild type [1] [°C] | cp value (factor V DNA; 10^4 copies) | cp value (factor V DNA; 10^6 copies) | melting point for the mutant [2] [°C] | Cp (crossing point, measure for the amplification efficiency) (human Factor V DNA)
1 | FRET acceptor probe according to example 7b: SEQ ID NO: 3 FRET acceptor probe; p* = P = NS(O)2-rhodamine-B (DNA dA[RhoB]dGdGdGdAdTdCdTdGdCdTdCdTdTdAdCdAdGdAdTdTdAdGdAdAdGdTdAdGdTdCdCdTdAdTdT-{P}) | 64.69 | 26 | 22 | 56.24 | 
2 | 5′ GAGAGACATCGCCTCTGGGCT p1A / 5′ TGTTATCACACTGGTGCTAA: primer combination; p1 is a P = N-pPh-NAc mimetic |  |  |  |  | 20.80
